According to EP0719251B1, “BICYCLO (2.2.2) OCTANE DERIVATIVES CHOLECYSTOKININ AND/OR GASTRIN ANTAGONISTS” (JAMES BLACK FOUNDATION LIMITED, priority 1993, dated 1995):

Tests used:
gastrin = target: T1, gastrin (Rattus norvegicus, UniProt P30553); assay: gastrin antagonist activity in an immature rat stomach assay; conditions: isolated immature rat stomach, cumulative pentagastrin dose-response curves, acid secretion; for Kb: read-out: Gastrin pKB (converted); for Gastrin pKB: 60 min
T1 construct: The stomach was excised and flushed with ca. 1 ml of unbuffered physiological saline solution; from tissue; host or cells: isolated whole stomach of immature rats (33-50 g, ca. 21 days old)
T1 sequence (P30553 1-452): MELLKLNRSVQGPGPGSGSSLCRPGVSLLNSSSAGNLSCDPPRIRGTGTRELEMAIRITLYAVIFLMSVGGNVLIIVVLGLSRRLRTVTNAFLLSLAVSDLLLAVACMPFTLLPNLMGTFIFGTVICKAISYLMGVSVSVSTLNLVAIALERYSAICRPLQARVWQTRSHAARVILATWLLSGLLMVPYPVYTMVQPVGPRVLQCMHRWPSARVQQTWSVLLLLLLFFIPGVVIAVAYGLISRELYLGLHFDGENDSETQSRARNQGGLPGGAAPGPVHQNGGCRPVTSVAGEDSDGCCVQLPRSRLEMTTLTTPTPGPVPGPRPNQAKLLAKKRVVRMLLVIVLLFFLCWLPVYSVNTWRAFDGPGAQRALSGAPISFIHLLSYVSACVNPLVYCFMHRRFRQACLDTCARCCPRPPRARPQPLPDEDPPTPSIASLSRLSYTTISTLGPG
In short: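 Isolated stomachs from immature rats (33-50 g, ca. 21 days) perfused at 1 ml min^-1 with O2-gassed unbuffered saline, perfusate pH monitored by electrode. After 120 min stabilisation, compounds added to serosal bath; cumulative pentagastrin dose-response curves begun 60 min later.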

CCKB receptor = target: T2, CCKB receptor (Mus musculus, UniProt P56481); assay: radioligand binding assay at the CCKB receptor in mouse cortical membranes; conditions: [125I]-CCK8S 200pM, 150 min at 21 ± 3°C; for Ki: read-out: CCKB pKi (converted)
T2 construct: The whole brains from male mice (CD1 22-25g; Charles River) were removed; from tissue; host or cells: cerebral cortex membranes of male CD1 mice
T2 sequence (P56481 1-453): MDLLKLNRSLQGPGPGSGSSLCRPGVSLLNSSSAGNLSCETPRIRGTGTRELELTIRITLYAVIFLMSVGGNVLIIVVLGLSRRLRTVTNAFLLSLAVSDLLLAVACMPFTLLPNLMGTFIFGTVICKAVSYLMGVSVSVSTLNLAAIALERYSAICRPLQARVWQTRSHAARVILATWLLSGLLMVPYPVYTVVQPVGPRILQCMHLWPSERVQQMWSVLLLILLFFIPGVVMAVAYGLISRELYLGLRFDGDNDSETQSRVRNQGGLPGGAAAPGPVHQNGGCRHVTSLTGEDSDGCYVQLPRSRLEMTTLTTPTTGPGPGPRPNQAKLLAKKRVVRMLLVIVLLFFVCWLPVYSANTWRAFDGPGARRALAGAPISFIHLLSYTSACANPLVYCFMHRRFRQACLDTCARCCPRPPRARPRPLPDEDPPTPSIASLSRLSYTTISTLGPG
In short: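 Cortical membranes from male CD1 mice prepared in HEPES buffer (pH 7.2, with NaCl, KCl, MgCl2, EDTA, bacitracin) at 2 mg/ml wet weight. Binding stopped by rapid filtration over GF/B filters with ice-cold Tris-HCl washes. Bound radioactivity counted in a gamma-counter.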

CCKA = target: T3, CCKA (Cavia porcellus, UniProt Q63931); assay: CCKA binding assay in guinea-pig pancreas membranes; conditions: [125I]-CCK8(S) 200pM; for Ki: containing 0.375 µM PD134,308, read-out: CCKA pKi (converted); for CCKA pKi: containing 0.375 µM PD134,308
T3 construct: The pancreatata were removed from male guinea-pigs (200-300g; Dunkin Hartley); from tissue; host or cells: pancreas membranes of male Dunkin Hartley guinea-pigs
T3 sequence (Q63931 1-430): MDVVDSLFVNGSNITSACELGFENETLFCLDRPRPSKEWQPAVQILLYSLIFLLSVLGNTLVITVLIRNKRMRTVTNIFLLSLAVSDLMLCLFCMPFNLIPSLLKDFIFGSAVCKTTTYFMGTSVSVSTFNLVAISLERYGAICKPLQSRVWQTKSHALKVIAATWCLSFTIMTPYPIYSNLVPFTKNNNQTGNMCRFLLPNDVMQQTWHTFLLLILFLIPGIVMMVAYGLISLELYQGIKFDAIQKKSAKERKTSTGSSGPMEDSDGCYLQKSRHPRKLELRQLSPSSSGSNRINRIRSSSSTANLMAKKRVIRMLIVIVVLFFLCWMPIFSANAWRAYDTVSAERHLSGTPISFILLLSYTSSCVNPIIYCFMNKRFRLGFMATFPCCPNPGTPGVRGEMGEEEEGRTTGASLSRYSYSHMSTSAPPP
Experimental: The compounds of the examples were also tested in a CCKÅ binding assay as follows:
The pancreatata were removed from male guinea-pigs (200-300g; Dunkin Hartley) and placed in ice-cold HEPES buffer (pH 7.2 @ 21 ± 3° ). The pancreatata were homogenised in 40 ml ice-cold HEPES buffer using a polytron (Brinkmann, PT10, setting 10) 4 x 1 second.
The homogenate was centrifuged at 39,800g for 15 min at 4°. The supernatant was discarded and the pellet re-suspended using a Teflon-in-glass homogeniser in 20 volumes of fresh buffer and recentrifuged as above. The final pellet was re-suspended using a Teflon-in-glass homogeniser to a tissue concentration of 1 mg.ml^-1 (original wet weight), and filtered through 500 µm pore-size Nytex mesh.
The membranes (400µl; containing 0.375 µM PD134,308) are incubated for 150 minutes at 21 ± 3° in a final volume of 0.5ml with HEPES buffer containing [^125I]-CCK8(S) (50µl; 200pM) and competing compound. Total and non-specific binding of [^125I]-CCK8 (S) are defined using 50µl of buffer and 50µl of 100nM L-364,718 respectively. The assay is terminated by rapid filtration through pre-soaked Whatman GF/B filters using a Brandell Cell Harvester. The filters were washed (3 x 3ml) with ice-cold 50mM Tris HCl (pH 7.4 at 4° ) and bound radioactivity is determined by counting (1 min) in a gamma counter.

Row | Compound | Kb (gastrin) | Ki (CCKB receptor) | Ki (CCKA) | Gastrin pKB (gastrin) | CCKB pKi (CCKB receptor) | CCKA pKi (CCKA)
1 | O=C(O)c1cc(NC(=O)[C@H](Cc2ccccc2F)NC(=O)C2C3c4ccccc4C(c4ccccc43)C2C(=O)NCC23CC4CC(CC(C4)C2)C3)cc(C(=O)O)c1 (single isomer, unassigned) [Example 16, cis-7-(1S-(3,5-dicarboxyphenylaminocarbonyl)-2-(2-fluorophenyl)-ethylaminocarbonyl)-8-(1-adamantanemethylaminocarbonyl) -2,3,5,6-dibenzobicyclo[2.2.2]octane] | 2.51 nM | 3.16 nM | 1000 nM | – | – | –
2 | cis-7-(1S-(3,5-dicarboxyphenylaminocarbonyl) -2-(2-thiophenyl)-ethylaminocarbonyl) -8-(1-adamantane-methylaminocarbonyl) -2,3,5,6-dibenzobicyclo[2.2.2]octane [Example 6] | – | – | – | 7.9 | 8.6 | 5.7
3 | O=C(O)c1cc(NC(=O)[C@H](Cc2ccccc2)NC(=O)C2C3c4ccccc4C(c4ccccc43)C2C(=O)NCC23CC4CC(CC(C4)C2)C3)cc(C(=O)O)c1 (single isomer, unassigned) [Example 2, cis-7-(1S-(3,5-dicarboxyphenylaminocarbonyl) -2-phenylethylaminocarbonyl)-8-(1-adamantanemethylaminocarbonyl)-2,3,5,6-dibenzobicyclo[2.2.2] octane] | 50.1 nM | 15.8 nM | 501 nM | – | – | –
4 | O=C(O)c1cc(NC(=O)[C@H](Cc2ccc3ccccc3c2)NC(=O)C2C3c4ccccc4C(c4ccccc43)C2C(=O)NCC23CC4CC(CC(C4)C2)C3)cc(C(=O)O)c1 (single isomer, unassigned) [Example 15, cis-7-(1S-(3,5-dicarboxyphenylaminocarbonyl)-2-(2-naphthyl)ethylaminocarbonyl)-8-(1-adamantanemethylaminocarbonyl) -2,3,5,6-dibenzobicyclo[2.2.2]octane] | – | – | – | 5.8 | 6.7 | 7.0
5 | O=C(O)c1cc(NC(=O)[C@H](Cc2ccc(Cl)cc2)NC(=O)C2C3c4ccccc4C(c4ccccc43)C2C(=O)NCC23CC4CC(CC(C4)C2)C3)cc(C(=O)O)c1 (single isomer, unassigned) [Example 11, cis-7-(1S-(3,5-dicarboxyphenylaminocarbonyl)-2-(4-chlorophenyl)ethylaminocarbonyl)-8-(1-adamantanemethylaminocarbonyl) -2,3,5,6-dibenzobicyclo[2.2.2]octane] | 100 nM | 251 nM | 50.1 nM | – | – | –
6 | O=C(O)c1cc(NC(=O)[C@H](Cc2ccccc2F)NC(=O)C2C3c4ccccc4C(c4ccccc43)C2C(=O)NCC23CC4CC(CC(C4)C2)C3)cc(C(=O)O)c1 (single isomer, unassigned) [Example 17, cis-7-(1S-(3,5-dicarboxyphenylaminocarbonyl)-2-(2-fluorophenyl)ethylaminocarbonyl)-8-(1-adamantanemethylaminocarbonyl) -2,3,5,6-dibenzobicyclo[2.2.2]octane] | 10 nM | 6.31 nM | 794 nM | – | – | –

Second part, the compound after the results:

Row | Kb (gastrin) | Ki (CCKB receptor) | Ki (CCKA) | Gastrin pKB (gastrin) | CCKB pKi (CCKB receptor) | CCKA pKi (CCKA) | Compound
7 | 10 nM | 63.1 nM | 2510 nM | – | – | – | CC(C)(NC(=O)C1C2c3ccccc3C(c3ccccc32)C1C(=O)N[C@@H](Cc1ccccc1)C(=O)Nc1cc(C(=O)O)cc(C(=O)O)c1)C12CC3CC(CC(C3)C1)C2 (stereo partly drawn) [Example 49, cis-7-(1S-(3,5-dicarboxyphenylaminocarbonyl)-2-phenylethylaminocarbonyl)-8-(1-(1-adamantane)-1-methyl-ethylaminocarbonyl) -2,3,5,6-dibenzobicyclo[2.2.2]octane]
8 | 398 nM | 501 nM | 2510 nM | – | – | – | O=C(O)c1cc(NC(=O)[C@@H](NC(=O)C2C3c4ccccc4C(c4ccccc43)C2C(=O)NCC23CC4CC(CC(C4)C2)C3)c2ccccc2)cc(C(=O)O)c1 (stereo partly drawn) [Example 39, cis-7-(1S-(3,5-dicarboxyphenylaminocarbonyl) -3-phenylmethylaminocarbonyl)-8-(1-adamantanemethylaminocarbonyl) -2,3,5,6-dibenzobicyclo[2.2.2]octane]
9 | 79.4 nM | 3.98 nM | 3160 nM | – | – | – | O=C(O)c1cc(NC(=O)[C@H](Cc2ccccc2)NC(=O)C2C3c4ccccc4C(c4ccccc43)C2C(=O)NCCc2ccccc2)cc(C(=O)O)c1 (stereo partly drawn) [Example 53, cis-7-(1S-(3,5-dicarboxyphenylaminocarbonyl) -2-phenylethylaminocarbonyl) -8-(2-phenylethylaminocarbonyl) -2,3,5,6-dibenzobicyclo[2.2.2]octane]
10 | 3.98 nM | 3.16 nM | 316 nM | – | – | – | O=C(O)c1cc(NC(=O)[C@H](Cc2cccc(F)c2)NC(=O)C2C3c4ccccc4C(c4ccccc43)C2C(=O)NCC23CC4CC(CC(C4)C2)C3)cc(C(=O)O)c1 (single isomer, unassigned) [Example 18, cis-7-(1S-(3,5-dicarboxyphenylaminocarbonyl)-2-(3-fluorophenyl) -ethylaminocarbonyl)-8-(1-adamantanemethylaminocarbonyl)-2,3,5,6-dibenzobicyclo[2.2.2]octane]
11 | 1580 nM | 31.6 nM | 2000 nM | – | – | – | COC(=O)c1cc(NC(=O)[C@H](Cc2ccccc2)NC(=O)C2C3c4ccccc4C(c4ccccc43)C2C(=O)NCC23CC4CC(CC(C4)C2)C3)cc(C(=O)O)c1 (stereo partly drawn) [Example 42, cis-7-(1S-(3-carboxy-5-methoxycarbonyl-phenylaminocarbonyl)-2-phenylethylaminocarbcnyl)-8-(1-adamantanemethylaminocarbonyl) -2,3,5,6-dibenzobicyclo[2.2.2]octane]
12 | 79.4 nM | 50.1 nM | 316 nM | – | – | – | CN(C(=O)C1C2c3ccccc3C(c3ccccc32)C1C(=O)NCC12CC3CC(CC(C3)C1)C2)[C@@H](Cc1ccccc1)C(=O)Nc1cc(C(=O)O)cc(C(=O)O)c1 (stereo partly drawn) [Example 38, cis-7-(1S-(3,5-dicarboxyphenylaminocarbonyl) -2-phenylethyl-N (methyl)-aminocarbonyl) -8-(1-adamantanemethylaminocarbonyl) -2,3,5,6-dibenzobicyclo[2.2.2]octane]
